Patent US8227428B2, “Anti-infammatory macrolide” (Glaxo Group Limited, priority 2009, dated 2012)
Values after ≈ are worked out from the molar mass of the structure shown.

Columns and labels:
[1] = Stability in bio-relevant media (SGF, Fasted SIF, Fed SIF) at 37° C.; assay type: physicochemical
Description: Stability in buffer solutions pH 2 to pH 8 at 25° C., and in bio-relevant media (SGF pH 1.6, Fasted SIF pH 6.5 and Fed SIF pH 5.0) at 37° C., during 24 hours is monitored. The samples are analysed by LC/MS.
SGF (Simulated Gastric Fluid) pH 1.6
Fasted SIF (Simulated Intestinal Fluid) pH 6.5
Fed SIF (Simulated Intestinal Fluid) pH 5.0
Flow: 0.3 mL/min Column temp.: 25° C. Sample temp.: 25° C. (for stability assay in buffer solutions) • 37° C. (for stability assay in bio-relevant media) Injector volume: 3 μL (without injection program) MS Conditions: Instrument HP MS API-ES, positive ion mode Mass Range: 150-1500 Fragmentor: 100 Gain: 1.0 Treshold: 150 Step size: 0.20 Gas Temperature: 350° C. Drying Gas Flow: 13 L/min Nebulizer Pressure: 35 psig Capillary Voltage Positive 4000 V • Negative 4000 V Sample Preparation: a) For Stability Assay in Buffer Solutions
b) For Stability Assay in Bio-Relevat Media
b1) For SGF Media pH 1.6 Testing:
Compounds are dissolved in SGF media pH 1.6 to give 0.2 mg/mL solution in case of compounds 1 and 2, and to give 0.1 mg/mL solution in case of compound 3. Solutions are then stored in a water bath at 37° C. and removed at the proper time point for LC/MS analysis. Before analysis, pH values of prepared sample solutions are checked and adjusted if necessary.
b2) For Fasted SIF Media pH 6.5 Testing:
Compounds are dissolved in Fasted SIF media pH 6.5 to give 2 mg/mL solution. Solutions are then dispatched into vials that are stored in a water bath at 37° C. and removed at the proper time point and diluted 10 times with CH3CN for LC/MS analysis. Before analysis, pH values of prepared sample solutions are checked and adjusted if necessary.
b3) For Fed SIF Media pH 5.0 Testing:
Compounds are dissolved in Fed SIF media pH 5.0 to give 2 mg/mL solution. Solutions are then dispatched into vials that are stored in a water bath at 37° C. and removed at the proper time point and diluted 40 times with CH3CN for LC/MS analysis. Before analysis, pH values of prepared sample solutions are checked and adjusted if necessary.

[2] = system: Escherichia coli ATCC25922; assay: Anti-bacterial screening, broth microdilution MIC; assay type: cell-based; details: read-out: minimal inhibitory concentration (MIC)
Description: (§1) Whole-cell antimicrobial activity of compounds against clinically relevant bacteria (Staphylococcus aureus ATCC13709, Streptococcus pneumoniae ATCC49619, Streptococcus pyogenes ATCC700294, Moraxella catarrhalis ATCC23246, Haemophilus influenzae ATCC49247 and Escherichia coli ATCC25922) is determined by broth microdilution using the Clinical and Laboratory Standards (CLSI) recommended procedure (Document M7-[…], Methods for Dilution Susceptibility Tests for Bacteria that Grow Aerobically). Compounds are dissolved in DMSO to produce a 50 mM stock solution. The stock solution is diluted to a concentration of 128 μg/mL in appropriate media (Haemophilus Test Medium for Haemophilus influenzae, Mueller-Hinton Broth for Staphylococcus aureus, Moraxella catarrhalis and Escherichia coli, and Mueller-Hinton Broth supplemented with 5% horse serum for Streptococcus pyogenes and Streptococcus pneumoniae) to produce a working solution. A Tecan Genesis 150 Workstation (Tecan Group Ltd. Mannedorf, Switzerland) is used to prepare serial two-fold dilutions (50 μL aliquots) of the working solution in a U-shape bottom 96 well microtitre plate. After the compounds are diluted, a 50 μL aliquot of the test isolate ( 1×10^6 cfu/ml) is added to each well of the microtitre plate. The final test concentrations range from 0.125-64 μg/mL. Inoculated plates are incubated at 35° C. in ambient air for 18 to 24 hours. The minimum inhibitory concentration (MIC) is determined as the lowest concentration of compound that inhibited visible growth.

[3] = system: Haemophilus influenzae ATCC49247; assay: Anti-bacterial screening, broth microdilution MIC; assay type: cell-based; details: read-out: minimal inhibitory concentration (MIC)
Description: as §1

[4] = system: Moraxella catarrhalis ATCC23246; assay: Anti-bacterial screening, broth microdilution MIC; assay type: cell-based; details: read-out: minimal inhibitory concentration (MIC)
Description: as §1

[5] = system: Staphylococcus aureus ATCC13709; assay: Anti-bacterial screening, broth microdilution MIC; assay type: cell-based; details: read-out: minimal inhibitory concentration (MIC)
Description: as §1

[6] = system: Streptococcus pneumoniae ATCC49619; assay: Anti-bacterial screening, broth microdilution MIC; assay type: cell-based; details: read-out: minimal inhibitory concentration (MIC)
Description: as §1

[7] = system: Streptococcus pyogenes ATCC700294; assay: Anti-bacterial screening, broth microdilution MIC; assay type: cell-based; details: read-out: minimal inhibitory concentration (MIC)
Description: as §1

[8] = system: Lung neutrophilia induced by bacterial lipopolysaccharide (LPS); assay: Lung neutrophilia induced by bacterial lipopolysaccharide (LPS) in male BALB/cJ mice; assay type: in vivo; details: average; single dose 200 mg/kg i.p.; vs LPS challenged untreated animals
Description: For intraperitoneal administration (i.p.) compounds are dissolved in a final concentration of 10 mg/mL. The required amount of compound is first dissolved in dimethylsulfoxide (DMSO, Sigma) and then diluted with 0.5% (w/v) methyl-cellulose so that the final DMSO concentration is 5% (v/v). The obtained solution is applied in a dose volume of 0.2 mL per 10 g of animal. Therefore, the compound dose is 200 mg/kg.
Male BALB/cJ mice (Charles River, France), with an average weight of ˜30 g are randomly grouped (n=8 in testing group, 10 in positive control and 8 in negative control). Mice receive intraperitoneally (i.p.) a single dose of 200 mg/kg of test compound. Two hours after administration, 2 μg of LPS (from Escherichia coli serotype 0111:B4, Sigma), dissolved in sterile PBS in a volume of 60 μL, is intranasally administered to all experimental groups except the negative control group, which receive the same volume of vehicle (PBS). Animals are sacrificed approximately 24 hours after application of LPS in order to obtain bronchioalveolar lavage fluid (BALF), which is used to determine absolute number of cells and the percentage of neutrophils. Results are expressed as percentage decrease in total cell number and number of neutrophils in BALF of treated animals compared to positive control (LPS challenged, but untreated animals).

CC[C@H]1OC(=O)[C@H](C)[C@@H](O[C@H]2C[C@@](C)(OC)[C@@H](OC(=O)CN(CC)CC)[C@H](C)O2)[C@H](C)[C@@H](O[C@@H]2O[C@H](C)C[C@H](N(C)C)[C@H]2O)[C@](C)(OC)C[C@@H](C)C(=O)N[C@H](C)[C@@H](O)[C@]1(C)O [Example 3, 4″-O-(2-diethylaminoethanoyl)-6-O-methyl-9a-aza-9a-homoerythromycin A]
Percentage (Area %) of the compound observed in Bio-relevant media ([1]; Fasted SIF pH 6.5, 37° C., 1 h): 99.2 Area % | Percentage (Area %) of the compound observed in Bio-relevant media ([1]; Fasted SIF pH 6.5, 37° C., 2 h): 98.7 Area % | Percentage (Area %) of the compound observed in Bio-relevant media ([1]; Fasted SIF pH 6.5, 37° C., 3 h): 98.3 Area % | Percentage (Area %) of the compound observed in Bio-relevant media ([1]; Fasted SIF pH 6.5, 37° C., 4 h): 97.8 Area % | Percentage (Area %) of the compound observed in Bio-relevant media ([1]; Fasted SIF pH 6.5, 37° C., 5 h): 97.6 Area % | Percentage (Area %) of the compound observed in Bio-relevant media ([1]; Fasted SIF pH 6.5, 37° C., 24 h): 95.1 Area % | Percentage (Area %) of the compound observed in Bio-relevant media ([1]; Fasted SIF pH 6.5, 37° C., Initial): 100 Area % | Percentage (Area %) of the compound observed in Bio-relevant media ([1]; Fed SIF pH 5.0, 37° C., 1 h): 100 Area % | Percentage (Area %) of the compound observed in Bio-relevant media ([1]; Fed SIF pH 5.0, 37° C., 2 h): 99.9 Area % | Percentage (Area %) of the compound observed in Bio-relevant media ([1]; Fed SIF pH 5.0, 37° C., 3 h): 100 Area % | Percentage (Area %) of the compound observed in Bio-relevant media ([1]; Fed SIF pH 5.0, 37° C., 4 h): 99.9 Area % | Percentage (Area %) of the compound observed in Bio-relevant media ([1]; Fed SIF pH 5.0, 37° C., 5 h): 99.8 Area % | Percentage (Area %) of the compound observed in Bio-relevant media ([1]; Fed SIF pH 5.0, 37° C., 24 h): 99.8 Area % | Percentage (Area %) of the compound observed in Bio-relevant media ([1]; Fed SIF pH 5.0, 37° C., Initial): 100 Area % | Percentage (Area %) of the compound observed in Bio-relevant media ([1]; SGF pH 1.6, 37° C., 1 h): 98.5 Area % | Percentage (Area %) of the compound observed in Bio-relevant media ([1]; SGF pH 1.6, 37° C., 2 h): 98.5 Area % | Percentage (Area %) of the compound observed in Bio-relevant media ([1]; SGF pH 1.6, 37° C., 3 h): 98.0 Area % | Percentage (Area %) of the compound observed in Bio-relevant media ([1]; SGF pH 1.6, 37° C., 4 h): 98.0 Area % | Percentage (Area %) of the compound observed in Bio-relevant media ([1]; SGF pH 1.6, 37° C., 5 h): 98.0 Area % | Percentage (Area %) of the compound observed in Bio-relevant media ([1]; SGF pH 1.6, 37° C., 6 h): 95.9 Area % | Percentage (Area %) of the compound observed in Bio-relevant media ([1]; SGF pH 1.6, 37° C., 8 h): 95.7 Area % | Percentage (Area %) of the compound observed in Bio-relevant media ([1]; SGF pH 1.6, 37° C., 10 h): 95.0 Area % | Percentage (Area %) of the compound observed in Bio-relevant media ([1]; SGF pH 1.6, 37° C., 12 h): 95.0 Area % | Percentage (Area %) of the compound observed in Bio-relevant media ([1]; SGF pH 1.6, 37° C., 24 h): 94.5 Area % | Percentage (Area %) of the compound observed in Bio-relevant media ([1]; SGF pH 1.6, 37° C., Initial): 100 Area % | stability in all three bio relevant media ([1]; SGF pH 1.6, Fasted SIF pH 6.5, Fed SIF pH 5.0, 37° C., during 24 hours): Examples 1 and 3 showed stability in all three bio relevant media. | MIC [2]: > 64 µg/mL | MIC [3]: > 64 µg/mL | MIC [4]: 8 µg/mL (≈ 9.13 µM) | MIC [5]: > 64 µg/mL | MIC [6]: 8 µg/mL (≈ 9.13 µM) | MIC [7]: > 64 µg/mL | inhibition of the number of neutrophils in BALF [8]: more than 79%
